Assay results reported in patent US20050119276A1, “Methods of treating inflammatory bowel disease using NF-kB inhibitors” (Wyeth, priority 2003, published 2005).
Each block holds one molecule with its values, some of them ahead of it.

How the values were obtained:
[1] = system: immature female rats; assay: Effect on uterine wet weights in immature female rats; type: in vivo, rat
Method: Animals were treated once per day by gavage for three days. Following euthanasia on day four (24 h after the last dose) the uteri were removed, stripped of remaining fat and mesentery and weighed. The dose of the compound of example 3 chosen (50 mg/kg) was 500 fold higher than the efficacious dose in the above experiments.

[2] = system: HLA-B27 rats; assay: Stool character in the HLA rat standard pharmacological test procedure; type: in vivo
Method: (§1) A representative NF-kB selective ER ligand was evaluated in the HLA rat standard pharmacological test procedure, which emulates inflammatory bowel disease in humans. The following briefly describes the procedure used and results obtained. Male HLA-B27 rats were obtained from Taconic and provided unrestricted access to a food (PMI Lab diet 5001) and water. At the start of the study, rats were 22-26 weeks old.
(§2) Rats were dosed orally once per day for 5 days with one of the regimens listed below. There were five rats in each group and the last dose was administered two hours before euthanasia. • vehicle (50% DMSO/50% Dulbecco's PBS) • 17α-ethinyl-17β-estradiol (EE, 10 μg/kg) • Compound A (150 μg/kg) • Compound A (50 μg/kg) • Compound A (1.5 μg/kg) Stool quality was observed daily and graded according to the following scale: Diarrhea=3; soft stool=2; normal stool=1. At the end of the study, serum was collected and stored at −70° C. A section of colon was prepared for histological analysis and an additional segment was analyzed for myeloperoxidase activity.

[3] = system: HLA-B27 rats; assay: Myeloperoxidase activity in colon of HLA-B27 rats (neutrophil infiltration); type: in vivo, rat
Method: as §1
Rats were dosed orally once per day for 5 days with one of the regimens listed below. […] A section of colon was prepared for histological analysis and an additional segment was analyzed for myeloperoxidase activity.
Myeloperoxidase activity [Bradley, et al., Blood 60: 618-622 (1982)]. Myeloperoxidase activity was assessed as a measure of neutrophil infiltration into the colon. […]
Tissue was resuspended and homogenized in 2.5ml (1:5 w/v) of 50 mM H2KPO4 with 10 mM EDTA and 0.5% Hex Ammonium Bromide to help solubilize the intracellular MPO. […] The supernatant was analyzed following these steps.
The test mixture was prepared by adding 2.9 ml of 50 mM H2KPO4 with 0.167 O-Dianisidine/ml with 0.0005% H2O2 into a reaction tube. […] OD was measured every 2 minutes reaction time at 460 nm against a blank containing 2.9 ml of the reaction mixture and 100 μl of the 0.5% ammonium bromide solution. […]

[4] = system: HLA-B27 rats; assay: Histological scoring of disease severity in the colon of HLA-B27 rats; type: in vivo, rat; conditions: for Fibrosis (0-2) / Inflammation (0-3) / Lesion depth (0-2) / Total score / Ulceration (0-2): histological score, colon
Method: as §1, §2
Histological analysis. Colonic tissue was immersed in 10% neutral buffered formalin. Each specimen of colon was separated into four samples for evaluation. The formalin-fixed tissues were processed in a Tissue Tek vacuum infiltration processor (Miles, Inc; West Haven, Conn.) for paraffin embedding. The samples were sectioned at 5 μm and then stained with hematoxylin and eosin (H&E) for blinded histologic evaluations using a scale modified after Boughton-Smith. Sections of colonic tissue were evaluated for several disease indicators and given relative scores. After the scores were completed the samples were unblinded, and data were tabulated and analyzed by ANOVA linear modeling with multiple mean comparisons.

[5] = 1.5 mcg/kg orally once per day for 5 days
[6] = 50 mcg/kg orally once per day for 5 days
[7] = 150 mcg/kg orally once per day for 5 days

melting point: 186 to 188 °C
Structure (SMILES): COc1cc(OC)cc(N2CCN(C(=O)[C@](C)(C#N)[C@H](c3ccccc3OC)c3cccc4ccccc34)CC2)c1 [Example 4, (S)-3-[4-(3,5-dimethoxyphenyl)piperazin-1-yl]-2-[(S)-(2-methoxyphenyl)(1-naphthyl)methyl]-2-methyl-3-oxopropanenitrile]

Uterine wet weight ([1]; 1.5 μg/kg (EC80)): significantly stimulated
Structure (SMILES): C#C[C@]1(O)CC[C@H]2[C@@H]3CCc4cc(O)ccc4[C@H]3CC[C@@]21C [17α-ethinylestradiol, 17α-ethinyl-17β-estradiol, reference compound]

Uterine wet weight ([1]; 50 mg/kg orally once per day for three days): no increase
melting point: 188 °C
Structure (SMILES): CC1c2cc(F)ccc2-c2ccccc2N1S(=O)(=O)c1ccc(O)cc1 (centres unmarked) [Example 3, 4-[(8-Fluoro-6-methylphenanthridin-5(6H)-yl)sulfonyl]phenol]
Stool score ([2]; 1.5 μg/kg oral): No effect
Stool score ([2]; 50 μg/kg oral): No effect
Stool score ([2]; 150 μg/kg oral, after 4 days of treatment): improvement in stool score
MPO activity in colon ([3]; 150 μg/kg oral): effectively inhibit MPO activity
MPO activity in colon ([3]; the lower doses (50 and 1.5 μg/kg) oral): no effect
All disease parameters measured (ulcerations, lesions, fibrosis, inflammatory cells), colon histology ([4]; 50 μg/kg oral): significantly improved
All disease parameters measured (ulcerations, lesions, fibrosis, inflammatory cells), colon histology ([4]; 150 μg/kg oral): significantly improved
Fibrosis (0-2) [4, 5]: 0.94 ± 0.52
Inflammation (0-3) [4, 5]: 2.50 ± 0.35
Lesion depth (0-2) [4, 5]: 1.1 ± 0.35
Total score [4, 5]: 5.75 ± 1.41
Ulceration (0-2) [4, 5]: 1.25 ± 0.24
Fibrosis (0-2) [4, 6]: 0.38 ± 0.32
Inflammation (0-3) [4, 6]: 1.69 ± 0.52
Lesion depth (0-2) [4, 6]: 0.56 ± 0.24
Total score [4, 6]: 3.25 ± 1.0
Ulceration (0-2) [4, 6]: 0.63 ± 0.25
Fibrosis (0-2) [4, 7]: 0.19 ± 0.24
Inflammation (0-3) [4, 7]: 1.50 ± 0.20
Lesion depth (0-2) [4, 7]: 0.31 ± 0.24
Total score [4, 7]: 2.38 ± 0.83
Ulceration (0-2) [4, 7]: 0.38 ± 0.32
